Laboratory results as given in paper PMC11220795 (Molecular Pharmaceutics, 2024).

Test: Drug solubility in medium-chain triglycerides (MCT, Miglyol 812 N); SORESOS 96-well assay, miniaturized shake-flask or literature
Conditions: decadic logarithm of molar solubility in MCTs (Miglyol 812 N), 24 h at room temperature; no literature source given
Protocol: The excipient complies with the quality specifications of the European Pharmacopoeia. The solvents used for the ultra-performance liquid chromatography (UPLC) quantification were of UPLC grade.
(b) employing a miniaturized version of the shake-flask method in 2 mL glass vials,[33] or (c) collecting data from the literature.[12],[34] Each of the employed assays involved residual solid-state screenings by powder X-ray diffraction to identify potential solid-state changes during solubility screenings.

Point of comparison: `CC1(C)OC2(CCN(C3=NC(=O)C4(Cc5ccccc5C4)O3)CC2)c2cccnc21` [RO6953958], “log10 S [M]” value -2.47 M. Against it:
- Cc1ccc(-c2noc(C)c2COc2ccc(C(=O)NC3CCOCC3)nn2)cn1 [RO7017773] — higher, -2.24 M
- CC[C@H](C)C(=O)O[C@H]1C[C@@H](C)C=C2C=C[C@H](C)[C@H](CC[C@@H]3C[C@@H](O)CC(=O)O3)[C@H]21 [lovastatin] — higher, -2.45 M
- CC(C)(C(=O)NCC(F)(F)C(F)(F)F)C(=O)N[C@@H]1C(=O)Nc2ccccc2-c2ccccc21 [RO4929097] — higher, -2.24 M
- COc1ccc(N2CCOCC2)c2sc(NC(=O)N(C)C3CCC(O)CC3)nc12 (stereo not shown) [RO4403289] — lower, -3.39 M
- COc1ccc(N2CCOCC2)c2sc(NC(=O)c3ccc(F)cc3)nc12 [RO0716689] — higher, -2.41 M
- COc1ccc(Cl)cc1S(=O)(=O)N1CCOc2ccc(C(=O)Nc3ccc(C(=O)O)cc3)cc21 [RO5014449] — lower, -4.05 M
- O=C(N[C@@H]1CCCC[C@H]1O)c1cnc(OCC(F)(F)F)c(-c2ccc(Cl)c(Cl)c2)c1 [RO5267683] — higher, -2.34 M
- COc1cc(C(=O)Nc2nc3c(OC)ccc([C@H]4COCCO4)c3s2)ccn1 [RO4545823] — higher, -2.38 M
- COc1ccc(N2CCCCC2)c2sc(NC(=O)c3ccc(F)cc3)nc12 [RO0718883] — higher, -1.84 M
- CN(C)C(=O)Cc1c(C(=O)O)n(Cc2cccc3ccccc23)c2ccc(F)cc12 [RO5066852] — lower, -3.11 M
- Cc1cc(C#N)cc(C)c1Oc1nc(Nc2ccc(C#N)cc2)nc(N)c1Br [etravirine] — lower, -3.28 M
- Cc1onc(-c2ccc(F)cn2)c1COc1ccc(C(=O)N2CCS(=O)(=O)CC2)cn1 [RO5292065] — lower, -2.89 M
- CC1(C(=O)N2C[C@H](S(=O)(=O)c3ccc(OCC(F)(F)F)cc3C(F)(F)F)C[C@@H]2C(=O)NC2(C#N)CC2)CC1 [RO5444101] — lower, -2.64 M
- Cn1c(=O)c2[nH]cnc2n(C)c1=O [theophylline] — lower, -2.92 M
- CC(C)(C)c1ccc(CN(CCc2ccc(F)c(C(F)(F)F)c2)C(=O)c2c(F)c(Cl)cc3cc[nH]c23)cc1 [RO4920915] — higher, -1.47 M
- CN(C(=O)C(C)(C)c1cc(C(F)(F)F)cc(C(F)(F)F)c1)c1cnc(N2CCOCC2)cc1-c1ccccc1Cl [RO0676789] — higher, -1.07 M
- CC(C)(Oc1ccc(Cl)cc1)C(=O)O [clofibric acid] — higher, -0.63 M
- COc1ccc(C)cc1S(=O)(=O)N1CCCc2ccc(C(=O)Nc3ccc(C(=O)O)c(F)c3)cc21 [RO5033672] — lower, -4.19 M
- Cc1cccc(C#Cc2cn(-c3cnn(C)c(=O)c3)c(C)n2)c1 [RO5372709] — lower, -2.90 M
- COc1cc2ncnc(Nc3ccc(F)c(Cl)c3)c2cc1OCCCN1CCOCC1 [gefitinib] — lower, -3.09 M

Test: not given
Conditions: decadic logarithm of molar solubility in MCTs; ref Alsenz, J. and Kuentz, M., 2019; cited from earlier work

Point of comparison: `CC(=O)Nc1ccc(O)cc1` [paracetamol], “log10 S [M]” value -2.50 M. Against it:
- O=C1[C@H](CC[C@H](O)c2ccc(F)cc2)[C@@H](c2ccc(O)cc2)N1c1ccc(F)cc1 [ezetimibe] — higher, -2.16 M
- CCCSc1ccc2nc(NC(=O)OC)[nH]c2c1 [albendazole] — lower, -2.91 M
- CC(C)(C)NCC(O)COc1cccc2c1CC(O)C(O)C2 (stereo not shown) [nadolol] — lower, -3.23 M
- CCc1nc(N)nc(N)c1-c1ccc(Cl)cc1 [pyrimethamine] — lower, -2.65 M
- COc1ccc(Cl)cc1C(=O)NCCc1ccc(S(=O)(=O)NC(=O)NC2CCCCC2)cc1 [glibenclamide] — lower, -3.62 M
- CN1C(C(=O)Nc2ccccn2)=C(O)c2ccccc2S1(=O)=O [piroxicam] — higher, -2.25 M
- reserpine — lower, -3.06 M
- O=C(CCCN1CCC(O)(c2ccc(Cl)cc2)CC1)c1ccc(F)cc1 [haloperidol] — higher, -2.38 M
- O=C1C(CC[S+]([O-])c2ccccc2)C(=O)N(c2ccccc2)N1c1ccccc1 (stereo not shown) [sulfinpyrazone] — higher, -2.33 M
- Clc1ccccc1C(c1ccccc1)(c1ccccc1)n1ccnc1 [clotrimazole] — higher, -1.45 M
- COC1=CC(=O)C[C@@H](C)[C@]12Oc1c(Cl)c(OC)cc(OC)c1C2=O [griseofulvin] — lower, -2.59 M
- COc1ccc2c(c1)c(CC(=O)O)c(C)n2C(=O)c1ccc(Cl)cc1 [indomethacin] — higher, -2.01 M
- CCCN(CCC)S(=O)(=O)c1ccc(C(=O)O)cc1 [probenecid] — higher, -2.16 M
- O=C1NC(=O)C(c2ccccc2)(c2ccccc2)N1 [phenytoin] — lower, -3.00 M
- COc1cc2c(c(OC)c1OC)-c1ccc(OC)c(=O)cc1[C@@H](NC(C)=O)CC2 [colchicine] — higher, -2.34 M
- CC(=O)OCC(=O)[C@@]1(O)CC[C@H]2[C@@H]3CCC4=CC(=O)CC[C@]4(C)[C@H]3[C@@H](O)C[C@@]21C [hydrocortisone acetate] — lower, -3.54 M
- C[C@]12CC[C@H]3[C@@H](CCC4=CC(=O)CC[C@@]43C)[C@@H]1CC[C@@H]2O [testosterone] — higher, -1.56 M
- Cc1ccccc1-c1cc(N2CCOCC2)ncc1N(C)C(=O)C(C)(C)c1cc(C(F)(F)F)cc(C(F)(F)F)c1 [befetupitant] — higher, -1.08 M
- Nc1ccc(S(=O)(=O)Nc2ccnn2-c2ccccc2)cc1 [sulfaphenazole] — lower, -3.03 M
- CC(=O)CC(c1ccccc1)c1c(O)c2ccccc2oc1=O (stereo not shown) [warfarin] — higher, -2.14 M
- CCN(CC)CC(=O)Nc1c(C)cccc1C [lidocaine] — higher, -0.71 M
- CC(C)Cc1ccc(C(C)C(=O)O)cc1 (stereo not shown) [ibuprofen] — higher, -0.82 M
- Cc1cccc(Nc2ccccc2C(=O)O)c1C [mefenamic acid] — higher, -1.97 M
- C[C@@H]1C[C@H]2[C@@H]3CCC4=CC(=O)C=C[C@]4(C)[C@@]3(F)[C@@H](O)C[C@]2(C)[C@@]1(O)C(=O)CO [dexamethasone] — lower, -3.21 M
- O=C(O)c1cc(/N=N/c2ccc(S(=O)(=O)Nc3ccccn3)cc2)ccc1O [sulfasalazine] — lower, -4.24 M
- CC(=O)Oc1ccc(C(c2ccc(OC(C)=O)cc2)c2ccccn2)cc1 [bisacodyl] — higher, -2.22 M
- COc1ccc2c(c1)c(CC(=O)OCC(=O)O)c(C)n2C(=O)c1ccc(Cl)cc1 [acemetacin] — higher, -2.33 M
- NS(=O)(=O)c1cc(C(=O)O)c(NCc2ccco2)cc1Cl [furosemide] — lower, -3.18 M
- CC(=O)N1CCN(c2ccc(OCC3COC(Cn4ccnc4)(c4ccc(Cl)cc4Cl)O3)cc2)CC1 (stereo not shown) [ketoconazole] — lower, -2.90 M
- CC(=O)[C@H]1CC[C@H]2[C@@H]3CCC4=CC(=O)CC[C@]4(C)[C@H]3CC[C@]12C [progesterone] — higher, -1.05 M
- CC(C(=O)O)c1ccc(-c2ccccc2)c(F)c1 (stereo not shown) [flurbiprofen] — higher, -0.86 M
- CCCCNC(=O)NS(=O)(=O)c1ccc(C)cc1 [tolbutamide] — higher, -1.85 M

Same assay, conditions: decadic logarithm of molar solubility in MCTs; ref Alskär, L.C., Porter, C.J. and Bergström, C.A., 2016; cited from earlier work

Point of comparison: `CCOc1nc2cccc(C(=O)OC(C)OC(=O)OC3CCCCC3)c2n1Cc1ccc(-c2ccccc2-c2nnn[nH]2)cc1` (stereo not shown) [candesartan cilexetil], “log10 S [M]” value -2.93 M. Against it:
- O=C(O)c1cc(-c2ccc(F)cc2F)ccc1O [diflunisal] — higher, -1.18 M
- COC(=O)Nc1nc2ccc(Sc3ccccc3)cc2[nH]1 [fenbendazole] — lower, -3.20 M
- C#C[C@]1(O)CC[C@H]2[C@@H]3CCc4cc(O)ccc4[C@H]3CC[C@@]21C [ethinylestradiol] — higher, -0.83 M
- CCCCN(CCCC)CCC(O)c1cc2c(Cl)cc(Cl)cc2c2cc(C(F)(F)F)ccc12 (stereo not shown) [halofantrine] — higher, -0.70 M
- CCC(C)n1ncn(-c2ccc(N3CCN(c4ccc(OCC5COC(Cn6cncn6)(c6ccc(Cl)cc6Cl)O5)cc4)CC3)cc2)c1=O (stereo not shown) [itraconazole] — lower, -3.59 M
- bezafibrate — lower, -3.22 M
- OCCN(CCO)c1nc(N2CCCCC2)c2nc(N(CCO)CCO)nc(N3CCCCC3)c2n1 [dipyridamole] — lower, -3.56 M
- O=C(Nc1ccc([N+](=O)[O-])cc1Cl)c1cc(Cl)ccc1O [niclosamide] — higher, -2.06 M
- COc1ccc2cc([C@H](C)C(=O)O)ccc2c1 [naproxen] — higher, -1.38 M
- CCOc1nc2cccc(C(=O)O)c2n1Cc1ccc(-c2ccccc2-c2nnn[nH]2)cc1 [candesartan] — lower, -4.64 M
- CCN(CC)C(=S)SSC(=S)N(CC)CC [disulfiram] — higher, -0.73 M
- CCOC(=O)C1=C(C)NC(C)=C(C(=O)OC)C1c1cccc(Cl)c1Cl (stereo not shown) [felodipine] — higher, -1.16 M
- O=C(C1CCCCC1)N1CC(=O)N2CCc3ccccc3C2C1 (stereo not shown) [praziquantel] — higher, -1.38 M
- COc1cc(C)c(/C=C/C(C)=C/C=C/C(C)=C/C(=O)O)c(C)c1C [acitretin] — lower, -3.13 M
- CC(C)(Oc1ccc(C(=O)c2ccc(Cl)cc2)cc1)C(=O)O [fenofibric acid] — higher, -2.21 M

Same assay, conditions: decadic logarithm of molar solubility in MCTs; ref Wyttenbach, N. 2007, AAPS PharmSci360 Poster W4355; cited from earlier work

In the case of `Nc1ccc(S(=O)(=O)Nc2nccs2)cc1` [sulfathiazole], the “log10 S [M]” value is listed as -3.93 M.

Same assay, conditions: decadic logarithm of molar solubility in MCTs; ref Wyttenbach, N., Niederquell, A., Ectors, P. and Kuentz, M., 2022; cited from earlier work

Point of comparison: `NC(=O)N1c2ccccc2C=Cc2ccccc21` [carbamazepine], “log10 S [M]” value -2.09 M. Against it:
- c1ccc(-c2ccc(C(c3ccccc3)n3ccnc3)cc2)cc1 (stereo not shown) [bifonazole] — higher, -1.97 M
- Cc1ccc(-c2cc(C(F)(F)F)nn2-c2ccc(S(N)(=O)=O)cc2)cc1 [celecoxib] — higher, -1.66 M
- COc1ccccc1OCCNCC(O)COc1cccc2[nH]c3ccccc3c12 (stereo not shown) [carvedilol] — lower, -2.46 M
- O=c1[nH]c2ccccc2n1C1CCN(CCCC(c2ccc(F)cc2)c2ccc(F)cc2)CC1 [pimozide] — lower, -2.82 M
